“Also recorded” adds a separate entry of the source.
Legend:
Format in all cases: cell-based, human
[1] = tested on: LoVo; settings: 10 days
Procedure: (§1) Because colon cancer cells develop resistance to chemotherapy after an initial response, we decided to investigate whether VTD can potentiate the cytotoxic effect of 5-FU when cells receiving long-term therapy mimicking the in vivo therapy. Cells were treated with VTD for 10 days.
(§2) Based on the significant effect of long-term exposure in LoVo and U2OS, we hypothesized that VTD could be a potential complementary strategy alongside 5-FU, an effective drug with a high rate of resistant events in colon tumors. To answer this question, we first determined the minimum concentration of 5-FU that has no effect or a very mild effect on cell viability after 10 days' exposure in three cell lines HCT-116, LoVo, and U2OS (data not shown). We performed the 10 days' treatment using a combination of a low dose of VTD (50 μM or 100 μM) plus a suboptimal dose of 5-FU (1 μM or 5 μM).
(§3) FIG. 20: Sensitization of colon cancer cells to a long-term suboptimal dose of 5-fluorouracil exposure when combined with VTD. (A-D) (A) HCT-116, (B) LoVo, (C) SW-480, and (D) U2OS were treated with VTD (10-300 μM) for 10 days. […] (E-G) (E) HCT-116, (F) LoVo, and (G) U-2OS were treated with suboptimal doses of 5-FU and VTD (50 and 100 μM) for 10 days. […] (H-I) A series of flow cytometry assays using an antibody against the CD44 cancer stem cell marker illustrated that VTD can target CD44+ colon cancer stem cells and eventually eliminate them in a dose-dependent manner, implicating VTD as a potential cancer stem cell-targeting therapy. (J) Tumor tissue lysates from 48 patients with colon cancer along the matched adjacent normal colon tissue lysates were probed with anti-UBXN2A and anti-Actin antibodies, followed by quantitation and normalization of signals. […] (I) The proposed mechanism action of VTD. VTD increases the expression of UBXN2A, which releases the p53 from mot-2's sequestration and, together with standard chemotherapy, can cause an effective tumor suppression.

[2] = tested on: HCT-116; settings: 10 days
Procedure: as §1, §2, §3

[3] = tested on: U2OS; settings: 10 days
Procedure: as §1, §2, §3

[4] = tested on: LoVo; assay: MTT cell viability assay
Procedure: (§4) We decided to confirm whether VTD-induced tumor suppression is indeed mediated via the UBXN2A-mot-2-p53 axis (FIG. 18H). After initial verification with WB (FIG. 18A), HCT-116 (p53+/+ and p53 −/−) and LoVo were treated with VTD for 24, 48, and 72 hours (FIG. 18B-D). […] We defined this phenomenon as a delayed cytotoxic response, since it occurs through UBXN2A transcription, as previously described for other anti-cancer agents. […] In the second set of experiments, we treated two stable UBXN2A silenced clones of HCT-116 along with controls with VTD. […] Staurosporine-treated cells were used as a positive control (S4F). […] Finally, to understand the contribution of mot-2 to the anti-cancer mechanism of VTD, we used a mot-2 inhibitor known as MKT-077 [7] along with VTD in well-differentiated SW-48 (WT-p53) colon cancer cells for 72 hours. Due to the critical role of mot-2 in the mitochondria, we could not use a silencing strategy for mot-2 in this set of experiments.
(§5) The viability of cells was calculated as % of control.
(§6) FIG. 18: Veratridine (VTD) functions via the UBXN2A-mot-2-p53 axis. (A) WB confirmed the presence and the absence of p53 protein in HCT-116 p53^(+/+) and HCT-116 p53^(−/−) cancer cell lines, respectively. […] (F) In another set of experiments, UBXN2A-silenced cells were treated with VTD (100, 200, and 300 μM) for 24 hours. Cells were then labelled with Sytox Red followed by flow cytometry analysis. […] (G) SW48 well-differentiated colon cancer cells with WT-p53 were treated with MKT-077 (5 mg/ml), an mot-2 inhibitor, along with VTD for 72 hours. […] (H) This flowchart recapped the sequence of proteins which activate and function upon VTD exposure to decrease cell viability. The data is shown as mean±SEM of three independent experiments (n=3) in triplicate where *p<0.05 using Benferroni's modified student's t-test.

[5] = tested on: HCT-116 p53+/+; assay: MTT cell viability assay
Procedure: as §4, §5, §6

[6] = tested on: HCT-116 p53−/−; assay: MTT cell viability assay
Procedure: as §4, §5, §6

[7] = VTD 50 or 100 μM plus 5-FU 1 or 5 μM

In the case of COc1ccc(C(=O)O[C@H]2CC[C@@]3(C)[C@@H]4CC[C@H]5[C@]6(O)C[C@H](O)[C@@]7(O)[C@@H](CN8C[C@@H](C)CC[C@H]8[C@@]7(C)O)[C@]6(O)C[C@@]53O[C@]24O)cc1OC [VTD, Veratridine], the “cell viability, long-term exposure” value ([1]; VTD 10-300 μM) is reported as “significant decrease in cell viability in a dose-dependent manner”, the “cytotoxic effect of suboptimal 5-FU in presence of VTD” value (from here on “cytotoxic effect of suboptimal 5-FU”) [1, 7] is reported as “significantly potentiated the cytotoxic effect of the suboptimal dose of 5-FU” and the “cell viability, long-term exposure” value ([2]; VTD 10-300 μM) is reported as “only responded to a high concentration of VTD”. The “cytotoxic effect of suboptimal 5-FU” value [2, 7] was “significantly potentiated the cytotoxic effect of the suboptimal dose of 5-FU”, the “cell viability, long-term exposure” value ([3]; VTD 10-300 μM) was “significant decrease in cell viability in a dose-dependent manner” and the “cytotoxic effect of suboptimal 5-FU” value [3, 7] was “significantly potentiated the cytotoxic effect of the suboptimal dose of 5-FU”. The “cell viability (MTT)” value ([4]; 48 and 72 hours) was “reduction of cell viability reached a maximum at 72 hours; also recorded: highest sensitivity to VTD”, the “cell viability (MTT)” value ([4]; 24 hour treatment, higher doses) was “significantly decreases the viability” and the “cell viability (MTT)” value ([5]; 48 and 72 hours, compared with HCT-116 p53−/−) was “significantly lower”. The “cell viability (MTT)” value ([5]; 24 hour treatment) was “not sufficient to produce any cytotoxic or anti-proliferative effect”, the “cell viability (MTT)” value ([6]; 48 and 72 hours) was “started to respond to VTD at higher doses after 48 hours; also recorded: more resistance to VTD's effects” and the “cell viability (MTT)” value ([6]; 24 hour treatment) was “not sufficient to produce any cytotoxic or anti-proliferative effect”.
